Tests used:
SN12C = format: cell-based; conditions: SN12C; 10^−5 molar
NCI-H23 = format: cell-based; conditions: NCI-H23; 10^−5 molar
HT29 = format: cell-based; conditions: HT29; 10^−5 molar
MCF7 = format: cell-based; conditions: MCF7; 10^−5 molar
MDA-MB-486 = format: cell-based; conditions: MDA-MB-486; 10^−5 molar
M14 = format: cell-based; conditions: M14; 10^−5 molar
OVCAR-8 = format: cell-based; conditions: OVCAR-8; 10^−5 molar
CAKI-1 = format: cell-based; conditions: CAKI-1; 10^−5 molar
60 cancer cell lines = assay: NCI 60-cell screen, SRB, whole panel (mean, delta, range); format: cell-based; conditions: 10^−5 molar
SF-539 = format: cell-based; conditions: SF-539; 10^−5 molar
NCI/ADR-RES = format: cell-based; conditions: NCI/ADR-RES; 10^−5 molar
SF-268 = format: cell-based; conditions: SF-268; 10^−5 molar
MDA-MB-231/ATCC = format: cell-based; conditions: MDA-MB-231/ATCC; 10^−5 molar
HS 578T = format: cell-based; conditions: HS 578T; 10^−5 molar
IGROV1 = format: cell-based; conditions: IGROV1; 10^−5 molar
BT-549 = format: cell-based; conditions: BT-549; 10^−5 molar
HCC-2998 = format: cell-based; conditions: HCC-2998; 10^−5 molar
CCRF-CEM = format: cell-based; conditions: CCRF-CEM; 10^−5 molar
MALME-3M = format: cell-based; conditions: MALME-3M; 10^−5 molar
UACC-62 = format: cell-based; conditions: UACC-62; 10^−5 molar
SW-620 = format: cell-based; conditions: SW-620; 10^−5 molar
MDA-MB-435 = format: cell-based; conditions: MDA-MB-435; 10^−5 molar
SNB-75 = format: cell-based; conditions: SNB-75; 10^−5 molar
OVCAR-5 = format: cell-based; conditions: OVCAR-5; 10^−5 molar
NCI-H460 = format: cell-based; conditions: NCI-H460; 10^−5 molar
SNB-19 = format: cell-based; conditions: SNB-19; 10^−5 molar
786-0 = format: cell-based; conditions: 786-0; 10^−5 molar
DU-145 = format: cell-based; conditions: DU-145; 10^−5 molar
NCI-H522 = format: cell-based; conditions: NCI-H522; 10^−5 molar
COLO 205 = format: cell-based; conditions: COLO 205; 10^−5 molar
HL-60(TB) = format: cell-based; conditions: HL-60(TB); 10^−5 molar
SR = format: cell-based; conditions: SR; 10^−5 molar
T-47D = format: cell-based; conditions: T-47D; 10^−5 molar
A498 = format: cell-based; conditions: A498; 10^−5 molar
UO-31 = format: cell-based; conditions: UO-31; 10^−5 molar
RPMI-8226 = format: cell-based; conditions: RPMI-8226; 10^−5 molar
OVCAR-4 = format: cell-based; conditions: OVCAR-4; 10^−5 molar
HCT-15 = format: cell-based; conditions: HCT-15; 10^−5 molar
SK-MEL-5 = format: cell-based; conditions: SK-MEL-5; 10^−5 molar
HCT-116 = format: cell-based; conditions: HCT-116; 10^−5 molar
ACHN = format: cell-based; conditions: ACHN; 10^−5 molar
SK-MEL-28 = format: cell-based; conditions: SK-MEL-28; 10^−5 molar
TK-10 = format: cell-based; conditions: TK-10; 10^−5 molar
RXF 393 = format: cell-based; conditions: RXF 393; 10^−5 molar
SF-295 = format: cell-based; conditions: SF-295; 10^−5 molar
MOLT-4 = format: cell-based; conditions: MOLT-4; 10^−5 molar
PC-3 = format: cell-based; conditions: PC-3; 10^−5 molar
K-562 = format: cell-based; conditions: K-562; 10^−5 molar
OVCAR-3 = format: cell-based; conditions: OVCAR-3; 10^−5 molar
A549/ATCC = format: cell-based; conditions: A549/ATCC; 10^−5 molar
NCI-H226 = format: cell-based; conditions: NCI-H226; 10^−5 molar
UACC-257 = format: cell-based; conditions: UACC-257; 10^−5 molar
HOP-62 = format: cell-based; conditions: HOP-62; 10^−5 molar
KM12 = assay: cells; format: cell-based; conditions: KM12; 10^−5 molar
SK-OV-3 = format: cell-based; conditions: SK-OV-3; 10^−5 molar

Work on `O=c1c2cc(Cl)ccc2sc2c(NC3CCCCC3)nc3ccccc3c12` [Compound N21, 10-Chloro-6-(cyclohexylamino)-12H-thiochromeno[2,3-c]quinolin-12-one] yielded a Growth percent (SN12C) of 89.12%, a Growth percent (NCI-H23) of 91.11% and a Growth percent (HT29) of 105.11%. It also gave a Growth percent (MCF7) of 46.14%, a Growth percent (MDA-MB-486) of 108.92% and a Growth percent (M14) of 103.41%. The Growth percent (OVCAR-8) was 74.91%, the Growth percent (CAKI-1) was 72.76% and the “Growth percent, Delta” value (60 cancer cell lines; delta over panel) was 46.48%. For the same compound, the “Growth percent, Mean” value (60 cancer cell lines; mean over panel) was 92.62%, the “Growth percent, Range” value (60 cancer cell lines; range over panel) was 81.82% and the Growth percent (SF-539) was 91.20%. It also gave a Growth percent (NCI/ADR-RES) of 95.91%, a Growth percent (SF-268) of 92.06% and a Growth percent (MDA-MB-231/ATCC) of 77.17%. The Growth percent (HS 578T) was 94.22%, the Growth percent (IGROV1) was 83.31% and the Growth percent (BT-549) was 105.53%. It also gave a Growth percent (HCC-2998) of 109.83%, a Growth percent (CCRF-CEM) of 92.23% and a Growth percent (MALME-3M) of 93.42%. For the same compound, the Growth percent (UACC-62) was 93.23%, the Growth percent (SW-620) was 87.98% and the melting point was 196 to 197 °C. The Growth percent (MDA-MB-435) was 106.98%, the Growth percent (SNB-75) was 81.91% and the Growth percent (OVCAR-5) was 98.06%. For the same compound, the Growth percent (NCI-H460) was 91.29%, the Growth percent (SNB-19) was 106.72% and the Growth percent (786-0) was 97.69%. For the same compound, the Growth percent (DU-145) was 104.25%, the Growth percent (NCI-H522) was 83.95% and the Growth percent (COLO 205) was 103.96%. For the same compound, the Growth percent (HL-60(TB)) was 107.06%, the Growth percent (SR) was 85.52% and the Growth percent (T-47D) was 72.43%. It also gave a Growth percent (A498) of 93.00%, a Growth percent (UO-31) of 72.52% and a Growth percent (RPMI-8226) of 94.56%. For the same compound, the Growth percent (OVCAR-4) was 72.10%, the Growth percent (HCT-15) was 91.71% and the Growth percent (SK-MEL-5) was 97.00%. For the same compound, the Growth percent (HCT-116) was 65.37%, the Growth percent (ACHN) was 97.31% and the Growth percent (SK-MEL-28) was 101.79%. It also gave a Growth percent (TK-10) of 127.96%, a Growth percent (RXF 393) of 97.03% and a Growth percent (SF-295) of 92.22%. For the same compound, the Growth percent (MOLT-4) was 92.42%, the Growth percent (PC-3) was 75.02% and the Growth percent (K-562) was 102.86%. The Growth percent (OVCAR-3) was 91.85%, the Growth percent (A549/ATCC) was 85.28% and the Growth percent (NCI-H226) was 93.26%. The Growth percent (UACC-257) was 103.68%, the Growth percent (HOP-62) was 101.46% and the Growth percent (KM12) was 112.90%. It also gave a Growth percent (SK-OV-3) of 94.54%.

From patent US8927717B1, “Thiochromeno[2,3-c]quinolin-12-one derivatives, preparation method and application thereof” (National Defense Medical Center, priority 2014, dated 2015)
